In EPA's CvTdb concentration-time database:

How the values were obtained:
Rat [1] = test: concentration in brain after dosing
Rat [2] = test: concentration in plasma after dosing
rat [3] = test: amount in urine after dosing (umol); settings: inhalation, duration: 4 hr, F344 (Harlan Winkelmann)
Rat [4] = test: concentration in liver after dosing; settings: dosed: Fluorotelomer alcohol 8+2, oral
Rat [5] = test: concentration in kidney after dosing; settings: dosed: Fluorotelomer alcohol 8+2, oral

CC1CCCO1 (stereo not given) [2-Methyltetrahydrofuran]
dosed: 2-Methyltetrahydrofuran, 40 mg/kg, iv, Harlan Sprague Dawley
Settings | concentration in brain, Rat [1] [ng/mL] | concentration in plasma, Rat [2] [ng/mL]
0.2 h, Male | 24700 | 35000
0.5 h, Female | 15400 | 27200
0.5 h, Male | 13500 | 32200
0.75 h, Male | 22000 | 24000
1.5 h, Male | 9210 | 14000
2 h, Female | 5700 | 7560
2 h, Male | 9630 | 10700
2 min, Female | 41700 | 73300
2 min, Male | 32400 | 50000
4 h, Female | 73.6 | 101
4 h, Male | 356 | 977
6 h, Female | – | 13.3
6 h, Male | 21.5 | 8.93
7 min, Male | 29700 | 46500

CC(C)(O)C(=O)O [2-hydroxyisobutyrate]
rat [3]
Settings | amount in urine
5.92 h, dosed: ethyl tert-butyl ether, 4.5 ppm | 0.229
5.923 h, dosed: methyl tert-butyl ether, 38.7 ppm | 1.23
5.99 h, dosed: ethyl tert-butyl ether, 40.6 ppm | 1.23
11.86 h, dosed: ethyl tert-butyl ether, 4.5 ppm | 0.657
11.94 h, dosed: ethyl tert-butyl ether, 40.6 ppm | 3.65
11.94 h, dosed: methyl tert-butyl ether, 38.7 ppm | 6.37
11.97 h, dosed: methyl tert-butyl ether, 4.5 ppm | 0.837
17.79 h, dosed: ethyl tert-butyl ether, 4.5 ppm | 1.03
17.99 h, dosed: methyl tert-butyl ether, 38.7 ppm | 2.57
18.01 h, dosed: methyl tert-butyl ether, 4.5 ppm | 0.625
18.03 h, dosed: ethyl tert-butyl ether, 40.6 ppm | 5.39
23.79 h, dosed: ethyl tert-butyl ether, 4.5 ppm | 0.405
23.95 h, dosed: methyl tert-butyl ether, 4.5 ppm | 0.205
23.95 h, dosed: methyl tert-butyl ether, 38.7 ppm | 0.915
23.98 h, dosed: ethyl tert-butyl ether, 40.6 ppm | 0.922
29.73 h, dosed: ethyl tert-butyl ether, 4.5 ppm | 0.355
29.93 h, dosed: ethyl tert-butyl ether, 40.6 ppm | 0.521
29.93 h, dosed: methyl tert-butyl ether, 38.7 ppm | 0.315
29.96 h, dosed: methyl tert-butyl ether, 4.5 ppm | 0.239

CC(O)C(C)(C)O (stereo not given) [2-methyl-2,3-butanediol]
amount in urine, rat [3], dosed: tert-amyl methyl ether
Settings | 3.8 ppm | 38.4 ppm
5.961 h | – | 1.13
5.981 h | 0.237 | –
11.86 h | 0.262 | –
12.08 h | – | 2.25
17.94 h | 0.179 | 1.18
23.82 h | 0.0479 | –
23.95 h | – | 0.366
29.9 h | 0.0229 | –
29.96 h | – | 0.165
35.73 h | 0.0302 | –
36.08 h | – | 0.225
41.81 h | 0.024 | –
41.88 h | – | 0.175
47.74 h | 0.0115 | –
47.95 h | – | 0.084

O=C(O)CCC(F)(F)C(F)(F)C(F)(F)C(F)(F)C(F)(F)C(F)(F)C(F)(F)F [Fluorotelomer acid 7+3]
Settings | concentration in kidney, Rat [5] [ng/g] | concentration in liver, Rat [4] [ng/g]
0.5 h, 24 mg/kg, Male, Harlan Sprague Dawley | 224 | 300
0.5 h, 24 mg/kg, Male, Harlan Sprague Dawley - this seems too small | 129 | 195
0.5 h, 80 mg/kg, Female, Harlan Sprague Dawley | 418 | 1070
1 h, 24 mg/kg, Male, Harlan Sprague Dawley | 291 | 784
1 h, 80 mg/kg, Female, Harlan Sprague Dawley | 883 | 2270
3 h, 24 mg/kg, Male, Harlan Sprague Dawley | 1640 | 3250
3 h, 80 mg/kg, Female, Harlan Sprague Dawley | 3250 | 8230
6 h, 24 mg/kg, Male, Harlan Sprague Dawley | 1200 | 3160
6 h, 80 mg/kg, Female, Harlan Sprague Dawley | 6470 | 8110
12 h, 24 mg/kg, Male, Harlan Sprague Dawley | 930 | 2590
12 h, 80 mg/kg, Female, Harlan Sprague Dawley | 3150 | 9470

Settings | concentration in brain [ng/g] | concentration in plasma [ng/mL]
Rat [1], 0.5 h, dosed: Fluorotelomer alcohol 8+2, 24 mg/kg, oral, Male, Harlan Sprague Dawley | 109 | –
Rat [1], 0.5 h, dosed: Fluorotelomer alcohol 8+2, 24 mg/kg, oral, Male, Harlan Sprague Dawley - this seems too small | 47.2 | –
Rat [1], 0.5 h, dosed: Fluorotelomer alcohol 8+2, 80 mg/kg, oral, Female, Harlan Sprague Dawley | 139 | –
Rat [1], 1 h, dosed: Fluorotelomer alcohol 8+2, 24 mg/kg, oral, Male, Harlan Sprague Dawley | 130 | –
Rat [1], 1 h, dosed: Fluorotelomer alcohol 8+2, 80 mg/kg, oral, Female, Harlan Sprague Dawley | 391 | –
Rat [1], 3 h, dosed: Fluorotelomer alcohol 8+2, 24 mg/kg, oral, Male, Harlan Sprague Dawley | 425 | –
Rat [1], 3 h, dosed: Fluorotelomer alcohol 8+2, 80 mg/kg, oral, Female, Harlan Sprague Dawley | 870 | –
Rat [1], 6 h, dosed: Fluorotelomer alcohol 8+2, 24 mg/kg, oral, Male, Harlan Sprague Dawley | 365 | –
Rat [1], 6 h, dosed: Fluorotelomer alcohol 8+2, 80 mg/kg, oral, Female, Harlan Sprague Dawley | 1250 | –
Rat [1], 12 h, dosed: Fluorotelomer alcohol 8+2, 24 mg/kg, oral, Male, Harlan Sprague Dawley | 222 | –
Rat [1], 12 h, dosed: Fluorotelomer alcohol 8+2, 80 mg/kg, oral, Female, Harlan Sprague Dawley | 632 | –
Rat [2], 0.25 h, dosed: 678-39-7, 12 mg/kg, iv, Male, F344 | – | 45.5
Rat [2], 0.25 h, dosed: 678-39-7, 40 mg/kg, iv, Male, F344 | – | 80.9
Rat [2], 0.25 h, dosed: Fluorotelomer alcohol 8+2, 12 mg/kg, oral, Male, Harlan Sprague Dawley | – | 21.6
Rat [2], 0.5 h, dosed: 678-39-7, 12 mg/kg, iv, Male, F344 | – | 157
Rat [2], 0.5 h, dosed: 678-39-7, 40 mg/kg, iv, Female, Harlan Sprague-Dawley | – | 400
Rat [2], 0.5 h, dosed: 678-39-7, 40 mg/kg, iv, Male, F344 | – | 640
Rat [2], 0.5 h, dosed: Fluorotelomer alcohol 8+2, 12 mg/kg, oral, Male, Harlan Sprague Dawley | – | 123
Rat [2], 0.75 h, dosed: 678-39-7, 12 mg/kg, iv, Male, F344 | – | 242
Rat [2], 0.75 h, dosed: 678-39-7, 40 mg/kg, iv, Female, Harlan Sprague-Dawley | – | 773
Rat [2], 0.75 h, dosed: Fluorotelomer alcohol 8+2, 12 mg/kg, oral, Male, Harlan Sprague Dawley | – | 405
Rat [2], 1 h, dosed: 678-39-7, 12 mg/kg, iv, Male, F344 | – | 455
Rat [2], 1 h, dosed: 678-39-7, 40 mg/kg, iv, Female, Harlan Sprague-Dawley | – | 1490
Rat [2], 1 h, dosed: Fluorotelomer alcohol 8+2, 12 mg/kg, oral, Male, Harlan Sprague Dawley | – | 317
Rat [2], 3 h, dosed: 678-39-7, 12 mg/kg, iv, Male, F344 | – | 700
Rat [2], 3 h, dosed: 678-39-7, 40 mg/kg, iv, Male, F344 | – | 2420
Rat [2], 3 h, dosed: Fluorotelomer alcohol 8+2, 12 mg/kg, oral, Male, Harlan Sprague Dawley | – | 794
Rat [2], 5 min, dosed: 678-39-7, 12 mg/kg, iv, Male, F344 | – | 8.32
Rat [2], 5 min, dosed: 678-39-7, 40 mg/kg, iv, Male, F344 | – | 21.4
Rat [2], 6 h, dosed: 678-39-7, 12 mg/kg, iv, Male, F344 | – | 762
Rat [2], 6 h, dosed: 678-39-7, 40 mg/kg, iv, Male, F344 | – | 1630
Rat [2], 6 h, dosed: Fluorotelomer alcohol 8+2, 12 mg/kg, oral, Male, Harlan Sprague Dawley | – | 619
Rat [2], 9 h, dosed: 678-39-7, 12 mg/kg, iv, Male, F344 | – | 110
Rat [2], 9 h, dosed: 678-39-7, 40 mg/kg, iv, Female, Harlan Sprague-Dawley | – | 366
Rat [2], 9 h, dosed: 678-39-7, 40 mg/kg, iv, Male, F344 | – | 481
Rat [2], 9 h, dosed: Fluorotelomer alcohol 8+2, 12 mg/kg, oral, Male, Harlan Sprague Dawley | – | 143
Rat [2], 12 h, dosed: 678-39-7, 12 mg/kg, iv, Male, F344 | – | 63.3
Rat [2], 12 h, dosed: 678-39-7, 40 mg/kg, iv, Female, Harlan Sprague-Dawley | – | 130
Rat [2], 12 h, dosed: Fluorotelomer alcohol 8+2, 12 mg/kg, oral, Male, Harlan Sprague Dawley | – | 159
Rat [2], 24 h, dosed: 678-39-7, 12 mg/kg, iv, Male, F344 | – | 98.6
Rat [2], 24 h, dosed: 678-39-7, 40 mg/kg, iv, Female, Harlan Sprague-Dawley | – | 498
Rat [2], 24 h, dosed: Fluorotelomer alcohol 8+2, 12 mg/kg, oral, Male, Harlan Sprague Dawley | – | 189
Rat [2], 48 h, dosed: Fluorotelomer alcohol 8+2, 12 mg/kg, oral, Male, Harlan Sprague Dawley | – | 112
Rat [2], 192 h, dosed: 678-39-7, 12 mg/kg, iv, Male, F344 | – | 22.5
Rat [2], 192 h, dosed: 678-39-7, 40 mg/kg, iv, Male, F344 | – | 134
Rat [2], 192 h, dosed: Fluorotelomer alcohol 8+2, 12 mg/kg, oral, Male, Harlan Sprague Dawley | – | 42.1
Rat [2], 192 h, dosed: Fluorotelomer alcohol 8+2, 24 mg/kg, oral, Male, Harlan Sprague Dawley | – | 53

Cc1ccc(C)c(OCCCC(C)(C)C(=O)O)c1 [Gemfibrozil]
concentration in plasma [ng/mL], Rat [2], dosed: Gemfibrozil, oral, Male, Sprague-Dawley
Settings | 4.29 mg/kg | 50 mg/kg | 100 mg/kg
0.25 h | 250 | 17900 | 67400
0.5 h | 314 | 15700 | 34600
1 h | 147 | 5640 | 26200
2 h | 307 | 3310 | 8500
4 h | 566 | 8040 | 6870
5 min | 395 | 1580 | 13300
6 h | 401 | 9040 | 19600
10 h | 286 | 4860 | –
10 min | 2260 | 7420 | 40200
15 h | 137 | 1870 | –
18 h | 108 | 975 | 2190
24 h | 128 | 920 | 1800
